Here are results for 2 compounds from patent US20190298666A1, “PROMOTION OF T LYMPHOCYTE PROLIFERATION” (Regents of the University of Minnesota, priority 2018, published 2019).

Series [1] deals with CD4+ and CD8+ T lymphocytes. Nature of the series: T cell growth/proliferation, mouse splenocytes with anti-CD3 and anti-CD28 antibodies, flow cytometry. The format is cell-based, C57BL/6J mouse. As for the experimental part: (§1) FIGS. 1A-B. Freshly harvested C57BL/6 splenocytes were seeded at 80,000 cells/well in a 96-well plate coated with anti-mouse CD3 (10 ug/ml) and anti-mouse CD28 (1 ug/ml) antibodies. After 24 hour incubation with HBB (0-50 uM), cells were then labeled with anti-mouse CD4-eFlour450, anti-mouse CD8 FITC and anti-mouse Thy1.2 APC-eFluor780 antibodies and analyzed by a flowcytometer. Thy1.2 positive single lymphocytes were gated as T cells and CD4 positive and CD8 positive cells were counted. FIG. 1A. Results are expressed as mean±S.D. (n=6). FIG. 1B. MCF-7 breast cancer cells were incubated in the same concentration range of HBB, also for 24 hours. MTT assay of cell numbers.
(§2) FIG. 4. Freshly harvested C57BL/6 splenocytes were seeded at 80,000 cells/well in a 96-well plate coated with anti-mouse CD3 (10 ug/ml) and anti-mouse CD28 (1 ug/ml) antibodies. After 24 hour incubation with metformin (0-10 mM), cells were then labeled with anti-mouse CD4-eFlour450, anti-mouse CD8 FITC and anti-mouse Thy1.2 APC-eFluor780 antibodies and analyzed by a flowcytometer. Thy1.2 positive single lymphocytes were gated as T cells and CD4 positive and CD8 positive cells were counted.
(§3) HBB effects on T cell growth were tested across a range of concentrations (0 to 50 uM). C57BL/6J mouse splenocytes were incubated with or without biguanides in the presence of anti-mouse CD3 and anti-mouse CD28 antibodies. After 24 hours, cells were labeled with fluorescently tagged antibodies to mouse Thy-1, CD4, CD8, CD25, CD44, CD62L and CD73 surface antigens and T cell subsets were analyzed by flow cytometry.

The target in series [2] is T1, CYP3A4 (Homo sapiens, UniProt P08684). The conditions noted are these: cited from earlier work.
T1 sequence (P08684 whole entry): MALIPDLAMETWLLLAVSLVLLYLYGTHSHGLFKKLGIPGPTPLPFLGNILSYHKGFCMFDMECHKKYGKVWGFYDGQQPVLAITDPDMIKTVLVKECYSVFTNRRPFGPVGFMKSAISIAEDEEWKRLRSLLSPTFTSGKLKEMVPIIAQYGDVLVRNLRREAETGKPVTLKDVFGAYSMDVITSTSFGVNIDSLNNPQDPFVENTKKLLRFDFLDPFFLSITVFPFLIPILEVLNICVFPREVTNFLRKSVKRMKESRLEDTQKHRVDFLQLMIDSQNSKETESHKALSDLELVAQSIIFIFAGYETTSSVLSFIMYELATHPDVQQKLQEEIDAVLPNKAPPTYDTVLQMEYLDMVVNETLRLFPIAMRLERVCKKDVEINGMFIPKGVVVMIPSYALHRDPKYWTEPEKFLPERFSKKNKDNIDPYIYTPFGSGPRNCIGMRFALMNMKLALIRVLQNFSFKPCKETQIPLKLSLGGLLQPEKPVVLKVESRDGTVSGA
In series [3] the test system is breast cancer cell lines and established mouse mammary tumors. The conditions noted are these: cited from earlier work.
Series [4] has as its system CD4+CD25+FOXP3- progenitor cells. Nature of the series: TRP conversion assay (IL2-dependent conversion into Tregs). The series is classed as cell-based. Conditions: 1 U/mL IL2, 3 days. From the text: (§4) Each TRP (CD4+CD25+FOXP3- or CD4+CD25−FOXP3+) population was isolated by FACS and stimulated with 1 U/mL IL2 (in complete RPMI) for 3 days then analyzed for upregulation of CD25 and FOXP3 (by GFP reporter).

Series [5] has as its system CD4+CD25−FOXP3+ progenitor cells. The series is described as above. The format is cell-based. The conditions noted are these: 1 U/mL IL2, 3 days.
Excerpt: as §4

Series [6] relates to Naive, non-Treg CD4 T cells. The experiment in a line: iTreg differentiation. The conditions noted are these: IL2 and TGFb, 3 days. The series is classed as cell-based. As for the experimental part:
Naive, non-Treg CD4 T cells were first isolated (these are isolated by magnetic depletion on CD8, CD11b, CD11c, CD19, CD24, CD25, CD44, CD49b, CD105, MHC-II, Gr1, Ter119, B220, TCRg/d). These cells were stimulated with plate bound anti-CD3/CD28 (plates were coated with 5 ug/mL for 2 hours at 37° C.) and given 100 U/mL IL2, 5 ng/mL TGFb and an additional 1 ug/mL anti-Cd28 in cRPMI. After 3 days the cells were stained for CD4, CD8 and CD25 with FOXP3 being on the GFP reporter. Tregs are defined here as CD25+FOXP3+. For this assay, 300,000 cells were plated per well in a 24 well plate.

Another series concerns CD8+ T lymphocytes. The experiment in a line: T cell proliferation, mouse splenocytes with anti-CD3 and anti-CD28 antibodies, flow cytometry. The series is classed as cell-based, C57BL/6J mouse. On the procedure: as §1, §2, §3
Background: In flow cytometry, cells or beads pass a laser one at a time.

In the next series the test system is CD4+ T lymphocytes. Described as above. The series is classed as cell-based, C57BL/6J mouse. As for the experimental part:
as §1, §2, §3

Series [7] deals with T1, CYP3A4. Conditions: compared with metformin; cited from earlier work.
In series [8] the test system is MCF-7 breast cancer cells. The experiment in a line: MTT assay of cell numbers, MCF-7. The series is classed as cell-based. The conditions noted are these: 0-50 uM, 24 hours, concentrations that induce CD4 and CD8 T cell growth. On the procedure:
as §1
In general terms: Formazan colour is commonly taken as a measure of viable cells.

The conditions of series [9]: rodents; cited from earlier work.

The structures appear in SMILES notation. Bounds are passed on as bounds.

In general, IC50 refers to the midpoint of a concentration-inhibition curve. Consider `CCCCCCNC(=N)NC(=N)NCc1ccccc1` [HBB, N1-hexyl-N5-benzyl biguanide], for which the “greater potency for T cell effects relative to metformin” value in series [1] worked out at 1000 fold. Further, in series [1] (0.09 to 1.5 uM, 24 hours), the “T cell growth at low concentrations” value is “did not inhibit”. The “inhibition of CYP3A4 AA epoxygenase activity” value at CYP3A4 [2] is “potently and specifically inhibits”. The “concentration range of activity against breast cancer cells” value in series [3] was about 20 µM. Also, the IC50 in series [3] (read-out: IC50, OCR and growth inhibition) was 3 to 30 µM. Further, the “IL2-dependent conversion into Tregs” value in series [4] and in series [5] was “blocks” in each case. Moreover, the “FOXP3 and CD25 expression of the Treg cells generated” value in series [6] was “expressed less FOXP3 and CD25”. In series [6], the “differentiation of naive T cells into Tregs” value is on record as “inhibits”. Besides, the “proliferation of CD8+ T lymphocytes” value in the series on CD8+ T lymphocytes (6 to 12 uM, P<0.05) turned out to be 1.6 fold. Also, the “increase of CD8+ T cells” value in the series with CD8+ T lymphocytes (6 to 12 microM) came to 60%. Besides, in the series with CD8+ T lymphocytes (at 1000-fold lower concentration than metformin), the “effectiveness for expansion of CD8+ T cells ex vivo relative to metformin” value was 5 fold. Besides, in the series with CD4+ T lymphocytes (6 to 12 uM, P<0.05), the “proliferation of CD4+ T lymphocytes” value stood at 1.9 fold. In the series on CD4+ T lymphocytes (6 to 12 microM), the “increase of CD4+ T cells” value was 90%. Besides, in the series with CD4+ T lymphocytes (at 1000-fold lower concentration), the “effectiveness for expansion of CD4+ T cells ex vivo relative to metformin” value was 3 fold. Also, at CYP3A4 [7], the “affinity for the CYP3A4 heme” value was “higher affinity than metformin”. The “growth of MCF-7 breast cancer cells” value in [8] is on record as “inhibit growth”.

Consider `CN(C)C(=N)N=C(N)N` [metformin, reference compound], for which the maximum tissue concentrations entry in series [9] is “about 500 microM”. Further, the “proliferation-inducing activity for T cells” value in [1] (concentrations below 5 mM) was “failed to show proliferation-inducing activity”. In [1] (metformin, 24 hours, FIG. 4), the “concentrations causing an increase of CD4+ and CD8+ T lymphocytes” value is over 5 mM. For the same compound, the “concentration range of activity against breast cancer cells” value in series [3] was about 5000 µM. In addition, the “increase of CD8+ T cells” value in the series with CD8+ T lymphocytes (10 mM) was 14%. Also, the “increase of CD4+ T cells” value with CD4+ T lymphocytes (10 mM) was determined as 30%.
